Consider 23 compounds from US4777167A, “Pharmaceutically useful substituted thiacycloalkeno [3,2-b]pyridines, compositions and method of use” (Ortho Pharmaceutical Corporation, priority 1987, dated 1988).

For one test, the target named is T1, calcium channels (Oryctolagus cuniculus, UniProt P15381).
T1 construct: from tissue; host or cells: heart of female New Zealand white rabbits, membrane fraction (42,000×g pellet)
Kind of test: Inhibition of nitrendipine binding (3H-nitrendipine displacement, rabbit heart membranes). Details: species or system rabbit (New Zealand white). The note with it: Table II, 90 min, 4° C. The procedure:
(1) Inhibition of nitrendipine binding to calcium channels.
The assay for inhibition of nitrendipine binding follows the following procedure:
Female, New Zealand white rabbits (1-2 kg) are sacrificed by cervical dislocation, and the heart is immediately removed, cleaned, and chopped into small pieces. The tissue is homogenized in 5× volume of 0.05M Hepes buffer, pH 7.4. The homogenate is centrifuged at 4000×g for 10 minutes; the supernatant is recentrifuged at 42,000×g for 90 minutes. The resulting membrane pellet is resuspended (0.7 ml/g weight) in 0.05M Hepes, pH 7.4 and stored at -70° C. until used. Each tube of the binding assay contains ^3 H- nitrendipine (0.05-0.50 nM), buffer, membranes (0.10 ml), and test compound in a total volume of 1.0 ml. After 90 minutes at 4° C., the bound nitrendipine is separated from the unbound by filtration on Whatman GF/C fibers. After rinsing, the filters are dried and counted in a liquid scintillation counter.
Non-specific binding of ^3 H-nitrendipine (that amount bound in the presence of excess unlabelled nitrendipine) is subtracted from the total bound to obtain specifically bound radiolabeled nitrendipine. The amount of specifically bound nitrendipine in the presence of a test compound is compared to that amount bound in the absence of a compound. A percent displacement (or inhibition) can then be obtained.

In another test the test system is trachealis muscle. Kind of test: Inhibition of calcium dependent smooth muscle contraction (KCl-challenged trachea). It is filed as cell-based, dog. The note with it: Canis lupus familiaris, Table II; for inhibition at 2 µM: concentration 2.0 μM; for inhibition at 2 µM / inhibition at 0.2 µM / inhibition at 0.1 µM: read-out: Inhibition Trachea Muscle Contraction % Inhibition; for inhibition at 0.2 µM: concentration 0.2 μM; for inhibition at 0.1 µM: concentration 0.1 μM; for inhibition at 1 µM: concentration 1.0 μM. The procedure:
The test for inhibition of calcium dependent smooth muscle contraction is determined according to the following procedure:
Trachea from dogs sacrificed by excess KCl injection are stored overnight at 4° C. in oxygenated Krebs-Henseleit buffer. Tracheal rings, one cartilage segment wide (5-10 mm), are cut starting from the bronchial end. After cutting the cartilage, the trachealis muscle tissue is suspended in oxygenated Krebs-Henseleit buffer at 37° C. in a 25 ml tissue bath. After a 60 minutes equilibration period, the tissues are challenged with 10 μM carbachol. After 5 minutes the tissues are rinsed and allowed to rest 50 minutes. The tissues are then challenged with 50 mM KCl and, after 30 minutes, the contractions are quantitated. The tissues are then rinsed and reequilibrated for 50 minutes. Test compounds are then added for 10 minutes, and the tissue is rechallenged with 50 mMKcl. After 30 minutes, the contraction is recorded and used to determine the % inhibition of control.
The percent inhibition of smooth muscle contraction is calculated from response data before and after drug treatment. [formula] A rating is assigned to the compound depending upon the percent inhibition obtained.

A further test relates to Aorta Muscle. Kind of test: Inhibition of aorta muscle contraction. It is filed as cell-based. Conditions: Table II; for inhibition at 0.1 µM: concentration 0.1 μM.

T1 sequence (P15381 whole entry, other chains not shown): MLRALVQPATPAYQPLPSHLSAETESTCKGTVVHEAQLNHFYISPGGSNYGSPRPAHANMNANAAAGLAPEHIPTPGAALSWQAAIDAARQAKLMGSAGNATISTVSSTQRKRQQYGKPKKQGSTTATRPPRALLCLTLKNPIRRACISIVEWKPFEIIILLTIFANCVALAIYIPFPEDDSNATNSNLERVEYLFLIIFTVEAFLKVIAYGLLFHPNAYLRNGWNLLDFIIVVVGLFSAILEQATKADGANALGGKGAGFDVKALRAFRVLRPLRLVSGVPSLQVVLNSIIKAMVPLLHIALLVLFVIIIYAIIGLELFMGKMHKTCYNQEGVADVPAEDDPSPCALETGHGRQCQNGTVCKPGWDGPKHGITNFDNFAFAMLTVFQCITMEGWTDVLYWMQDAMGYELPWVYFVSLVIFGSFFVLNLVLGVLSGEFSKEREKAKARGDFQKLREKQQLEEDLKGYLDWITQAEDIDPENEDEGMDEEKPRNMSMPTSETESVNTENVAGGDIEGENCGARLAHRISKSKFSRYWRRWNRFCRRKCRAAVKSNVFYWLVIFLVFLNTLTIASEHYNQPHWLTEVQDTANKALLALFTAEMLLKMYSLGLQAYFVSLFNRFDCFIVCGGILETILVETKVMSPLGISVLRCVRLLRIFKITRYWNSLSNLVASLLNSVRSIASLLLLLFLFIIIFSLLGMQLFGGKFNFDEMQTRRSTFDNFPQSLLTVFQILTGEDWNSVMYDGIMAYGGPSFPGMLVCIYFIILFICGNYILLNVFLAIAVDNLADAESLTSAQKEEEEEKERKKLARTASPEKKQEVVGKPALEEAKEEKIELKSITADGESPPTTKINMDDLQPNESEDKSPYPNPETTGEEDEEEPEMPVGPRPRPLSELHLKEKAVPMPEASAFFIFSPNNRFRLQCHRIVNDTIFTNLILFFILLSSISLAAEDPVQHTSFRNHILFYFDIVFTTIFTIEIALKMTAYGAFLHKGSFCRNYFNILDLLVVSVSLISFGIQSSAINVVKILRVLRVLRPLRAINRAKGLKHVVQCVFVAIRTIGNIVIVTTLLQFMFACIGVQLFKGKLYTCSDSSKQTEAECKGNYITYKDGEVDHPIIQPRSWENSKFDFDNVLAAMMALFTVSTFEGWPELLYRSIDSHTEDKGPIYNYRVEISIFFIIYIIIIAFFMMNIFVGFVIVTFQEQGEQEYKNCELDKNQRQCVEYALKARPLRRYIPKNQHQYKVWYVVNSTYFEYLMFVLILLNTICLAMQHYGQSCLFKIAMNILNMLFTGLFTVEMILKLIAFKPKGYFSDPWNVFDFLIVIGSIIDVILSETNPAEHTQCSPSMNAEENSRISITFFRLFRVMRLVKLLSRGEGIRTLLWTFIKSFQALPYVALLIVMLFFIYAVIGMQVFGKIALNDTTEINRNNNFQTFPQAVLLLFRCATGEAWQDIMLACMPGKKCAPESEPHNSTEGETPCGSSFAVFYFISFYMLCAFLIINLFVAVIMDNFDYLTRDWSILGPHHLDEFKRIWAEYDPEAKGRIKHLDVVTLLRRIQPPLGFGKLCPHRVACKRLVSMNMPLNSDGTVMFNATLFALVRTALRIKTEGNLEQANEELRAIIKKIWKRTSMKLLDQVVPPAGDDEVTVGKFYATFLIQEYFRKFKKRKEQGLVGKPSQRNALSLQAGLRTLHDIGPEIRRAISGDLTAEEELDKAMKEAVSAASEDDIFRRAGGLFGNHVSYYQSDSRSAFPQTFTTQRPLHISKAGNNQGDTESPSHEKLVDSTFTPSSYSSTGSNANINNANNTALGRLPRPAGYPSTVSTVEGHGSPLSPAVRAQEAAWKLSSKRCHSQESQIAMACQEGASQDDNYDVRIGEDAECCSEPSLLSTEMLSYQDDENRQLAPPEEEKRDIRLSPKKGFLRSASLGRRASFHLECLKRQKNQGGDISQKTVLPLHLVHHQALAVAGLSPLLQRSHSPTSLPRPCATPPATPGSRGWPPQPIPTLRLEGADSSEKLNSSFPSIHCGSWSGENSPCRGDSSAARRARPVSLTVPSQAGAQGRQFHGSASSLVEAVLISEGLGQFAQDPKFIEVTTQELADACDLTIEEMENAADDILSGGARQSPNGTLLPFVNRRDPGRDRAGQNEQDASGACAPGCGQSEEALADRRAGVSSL
T1 sequence (P13806 27-960 partner limits assumed, other chains not shown): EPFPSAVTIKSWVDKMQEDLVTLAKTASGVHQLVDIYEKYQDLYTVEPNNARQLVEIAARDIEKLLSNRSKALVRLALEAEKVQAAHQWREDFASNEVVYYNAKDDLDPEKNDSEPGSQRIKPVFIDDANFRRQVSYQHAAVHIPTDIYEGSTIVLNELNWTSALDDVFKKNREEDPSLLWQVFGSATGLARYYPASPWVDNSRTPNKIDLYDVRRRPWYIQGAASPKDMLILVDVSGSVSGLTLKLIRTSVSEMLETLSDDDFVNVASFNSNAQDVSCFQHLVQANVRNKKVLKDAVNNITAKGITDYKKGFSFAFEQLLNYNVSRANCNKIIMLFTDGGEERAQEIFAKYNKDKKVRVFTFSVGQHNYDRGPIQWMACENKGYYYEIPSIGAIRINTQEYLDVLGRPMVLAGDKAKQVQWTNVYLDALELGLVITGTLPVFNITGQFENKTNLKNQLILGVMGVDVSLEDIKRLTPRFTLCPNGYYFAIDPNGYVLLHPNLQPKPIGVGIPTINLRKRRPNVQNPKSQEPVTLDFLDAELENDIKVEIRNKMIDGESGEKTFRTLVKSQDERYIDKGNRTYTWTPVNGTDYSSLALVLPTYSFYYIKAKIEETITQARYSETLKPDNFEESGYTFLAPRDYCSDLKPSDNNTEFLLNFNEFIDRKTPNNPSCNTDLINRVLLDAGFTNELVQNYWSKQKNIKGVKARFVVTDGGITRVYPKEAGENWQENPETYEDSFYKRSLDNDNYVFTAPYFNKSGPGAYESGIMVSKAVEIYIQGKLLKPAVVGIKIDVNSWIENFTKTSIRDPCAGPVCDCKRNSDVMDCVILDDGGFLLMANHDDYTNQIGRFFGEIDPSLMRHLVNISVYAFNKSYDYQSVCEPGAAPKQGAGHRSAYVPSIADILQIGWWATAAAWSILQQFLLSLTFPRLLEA
T1 sequence (P13806 961-1106 partner limits assumed, other chains not shown): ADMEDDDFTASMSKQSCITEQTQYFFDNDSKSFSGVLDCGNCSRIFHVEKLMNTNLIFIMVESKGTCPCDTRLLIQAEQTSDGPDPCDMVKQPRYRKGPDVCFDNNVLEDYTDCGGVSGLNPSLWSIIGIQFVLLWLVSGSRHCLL

Broadly, the IC50 is the midpoint of a concentration-inhibition curve. Broadly, the inhibition is how much of the control response was suppressed. For `CC1=C(C(=O)OCCCN(C)Cc2ccccc2)C(c2cccc([N+](=O)[O-])c2)C2=C(CCCCS2(=O)=O)N1` (centres unmarked) [4 3-NO2 C6 H4 CH2 CH2 CH2 NCH3 CH2 C6 H5], at calcium channels, the IC50 was 290 nM. Moreover, the inhibition at 2 µM with trachealis muscle came out at 50%. Further, in the test on Aorta Muscle, the inhibition at 0.1 µM stood at 25%.
In the case of `CC1=C(C(=O)OCCN(C)Cc2ccccc2)C(c2cccc(C(F)(F)F)c2)C2=C(CCCCS2(=O)=O)N1` (centres unmarked) [4 3-CF3C6 H4], at calcium channels, the concentration for half-maximal inhibition (IC50) came to 2800 nM. In addition, in the test on trachealis muscle, the inhibition at 0.2 µM is 37%. In the test with Aorta Muscle, this compound displayed an inhibition at 0.1 µM of 44%.
In the case of `CC1=C(C(=O)OCCN(C)Cc2ccccc2)C(c2ccccc2Cl)C2=C(CCCCS2(=O)=O)N1` (centres unmarked) [4 2-ClC6 H4, N-Benzyl-N-methylaminoethyl 9-(2-chlorophenyl)-2,4,5,6,9-hexahydro-7-methyl-1,1-dioxothiacyclohepteno[3,2-b]pyridine-8-carboxylate], the 50% inhibitory concentration (IC50) on calcium channels is 220 nM. Besides, the inhibition at 0.1 µM in the test with trachealis muscle is 57%; in the test with Aorta Muscle, 54%.
As for `CC1=C(C(=O)OCCN(C)Cc2ccccc2)C(c2c(F)cccc2Cl)C2=C(CCCCS2(=O)=O)N1` (centres unmarked) [4 2-Cl,6-FC6 H3, N-Benzyl-N-methylaminoethyl 9-(2-chloro-6-fluorophenyl)-2,4,5,6,9-hexahydro-7-methyl-1,1-dioxothiacyclohepteno[3,2-b]pyridine-8-carboxylate], the IC50 on calcium channels came out at 29 nM. The inhibition at 0.1 µM was 50% in the test on trachealis muscle and 66% with Aorta Muscle.
`CC1=C(C(=O)OCCN(C)Cc2ccccc2)C(c2cc(F)ccc2F)C2=C(CCCCS2(=O)=O)N1` (centres unmarked) [4 2,5-F2C6 H3]: the half-maximal inhibitory concentration (IC50) at calcium channels stood at 120 nM. Further, the figures for the inhibition at 0.1 µM in the test on trachealis muscle and with Aorta Muscle were 43% and 47%, respectively.
For `CC1=C(C(=O)OCCN(C)Cc2ccccc2)C(c2ccccc2C(F)(F)F)C2=C(CCCCS2(=O)=O)N1` (centres unmarked) [4 2-CF3C6 H4, N-Benzyl-N-methylaminoethyl 2,4,5,6,9-hexahydro-7-methyl-9-(2-trifluoromethylphenyl)-1,1-dioxothiacyclohepteno[3,2-b]pyridine-8-carboxylate], the IC50 at calcium channels was found to be 160 nM. Besides, the inhibition at 0.1 µM in the test on trachealis muscle stood at 64%; in the test with Aorta Muscle it was 85%.
Consider `CC1=C(C(=O)OCCCN(C)Cc2ccccc2)C(c2ccccc2[N+](=O)[O-])C2=C(CCCCS2(=O)=O)N1` (centres unmarked) [4 2-NO2C6 H4 CH2 CH2 CH2 NCH3 CH2 C6 H5], for which the 50% inhibitory concentration (IC50) on calcium channels amounted to 1000 nM. For the same compound, in the test with trachealis muscle, the inhibition at 1 µM was determined as 41%. At 0.1 µM the inhibition in the test on Aorta Muscle was 7.7%.
In the same order, the values of `CC1=C(C(=O)OCCN(C)c2ccccc2)C(c2cccc([N+](=O)[O-])c2)C2=C(CCCCS2(=O)=O)N1` (centres unmarked) [4 3-NO2C6 H4 CH2 CH2 NCH3 C6 H5] are 45 nM, 65% and 53%.
Consider `CC1=C(C(=O)OCCN(C)Cc2ccccc2)C(c2cccc([N+](=O)[O-])c2)C2=C(CCCCCS2(=O)=O)N1` (centres unmarked) [5 3-NO2C6 H4, N-Benzyl-N-methylaminoethyl 3,4,5,6,7,10-hexahydro-8-methyl-10-(3-nitrophenyl)-1,1-dioxo-2H-thiacycloocteno[3,2-b]pyridine-9-carboxylate], for which the IC50 at calcium channels came to 45 nM. The inhibition at 0.1 µM in the test on trachealis muscle came to 43%; with Aorta Muscle, 67%.
Consider `CC1=C(C(=O)OCCN2CCc3ccccc3C2)C(c2cccc([N+](=O)[O-])c2)C2=C(CCCCS2(=O)=O)N1` (centres unmarked) [4 3-NO2C6 H4 drawing 11], for which the concentration for half-maximal inhibition (IC50) at calcium channels worked out at 200 nM. For the same compound, the inhibition at 0.2 µM in the test on trachealis muscle stood at 45%. Also, at 0.1 µM the inhibition with Aorta Muscle was 53%.
Turning to `CC1=C(C(=O)OCCO)C(c2cccc([N+](=O)[O-])c2)C2=C(CCCCS2(=O)=O)N1` (centres unmarked) [4 3-NO2C6 H4 CH2 CH2 OH], at calcium channels, the IC50 was 2400 nM. Moreover, the inhibition at 2 µM in the test with trachealis muscle was found to be 23%. In addition, the inhibition at 3 µM in the test on Aorta Muscle (concentration 3.0 μM) was 41%.
On to `CC1=C(C(=O)OCCN(C)Cc2ccccc2)C(c2cccc(Cl)c2Cl)C2=C(CCCCS2(=O)=O)N1` (centres unmarked) [4 2,3-Cl2C6 H3, N-Benzyl-N-methylaminoethyl 9-(2,3-dichlorophenyl)-2,4,5,6,9-hexahydro-7-methyl-1,1-dioxothiacyclohepteno[3,2-b]pyridine-8-carboxylate], for which the half-maximal inhibitory concentration (IC50) at calcium channels stood at 100 nM. The inhibition at 0.1 µM in the test with trachealis muscle was determined as 62%; in the test on Aorta Muscle it was 83%.
Consider `CC1=C(C(=O)OCCN(C)Cc2ccccc2)C(c2ccccc2OC(F)F)C2=C(CCCCCS2(=O)=O)N1` (centres unmarked) [5 2-OCHF2C6 H4, N-Benzyl-N-methylaminoethyl 10-(2-difluoromethoxyphenyl)-3,4,5,6,7,10-hexahydro-8-methyl-1,1-dioxothiacycloocteno[3,2-b]pyridine-9-carboxylate], for which the IC50 at calcium channels turned out to be 95 nM. Also, the inhibition at 0.1 µM in the test on trachealis muscle turned out to be 76%. Further, in the test with Aorta Muscle (concentration 0.01 μM), the inhibition at 0.01 µM amounted to 80%.
Consider `CC1=C(C(=O)OCCN(C)Cc2ccccc2)C(c2cccc(C(F)(F)F)c2Cl)C2=C(CCCCCS2(=O)=O)N1` (centres unmarked) [5 2-Cl,3-CF3C6 H3, N-Benzyl-N-methylaminoethyl 10-(2-chloro-3-trifluoromethylphenyl)-3,4,5,6,7,10-hexahydro-8-methyl-1,1-dioxothiacycloocteno[3,2-b]pyridine-9-carboxylate], for which the concentration for half-maximal inhibition (IC50) on calcium channels came out at 200 nM. Moreover, the inhibition at 0.1 µM in the test on trachealis muscle came to 57%; in the test on Aorta Muscle it was 78%.
For `CC1=C(C(=O)OCCN(C)Cc2ccccc2)C(c2cccc(C(F)(F)F)c2Cl)C2=C(CCCCS2(=O)=O)N1` (centres unmarked) [4 2-Cl,3-CF3C6 H3], on calcium channels, the IC50 was determined as 390 nM. In addition, the inhibition at 0.2 µM in the test with trachealis muscle stood at 50%. Further, the inhibition at 0.1 µM in the test with Aorta Muscle was determined as 66%.
As to `CC1=C(C(=O)OCCN(C)Cc2ccccc2)C(c2ccccc2[N+](=O)[O-])C2=C(CCCCS2(=O)=O)N1` (centres unmarked) [4 2-NO2C6 H4], on calcium channels, the 50% inhibitory concentration (IC50) was determined as 440 nM. Also, the inhibition at 0.1 µM in the test with trachealis muscle was found to be 49%; in the test on Aorta Muscle, 44%.
Regarding `CC1=C(C(=O)OCCN(C)Cc2ccccc2)C(c2cc([N+](=O)[O-])ccc2Cl)C2=C(CCCCS2(=O)=O)N1` (centres unmarked) [4 2-Cl,5-NO2C6 H3], at calcium channels, the IC50 came out at 260 nM. The figures for the inhibition at 0.1 µM in the test on trachealis muscle and with Aorta Muscle were 38% and 63%, respectively.
Turning to `CC1=C(C(=O)OCCN(C)c2ccccc2)C(c2ccccc2C(F)(F)F)C2=C(CCCCS2(=O)=O)N1` (centres unmarked) [4 2-CF3C6 H4 CH2 CH2 NCH3 C6 H5], the IC50 on calcium channels was 46 nM. Further, the inhibition at 0.1 µM was found to be 59% in the test with trachealis muscle and 57% with Aorta Muscle.
Regarding `CC1=C(C(=O)OCCN(C)c2ccccc2)C(c2c(F)c(F)c(F)c(F)c2F)C2=C(CCCCCS2(=O)=O)N1` (centres unmarked) [5 C6 F5 CH2 CH2 NCH3 C6 H5, N-Methyl-N-phenylaminoethyl 10-(2,3,4,5,6-pentafluorophenyl)-3,4,5,6,7,10-hexahydro-8-methyl-1,1-dioxothiacycloocteno[3,2-b]pyridine-9-carboxylate], the 50% inhibitory concentration (IC50) at calcium channels worked out at 18 nM. In addition, the inhibition at 0.1 µM in the test on trachealis muscle is 47%; with Aorta Muscle, 63%.
Turning to `CC1=C(C(=O)OC2CCN(Cc3ccccc3)CC2)C(c2cccc([N+](=O)[O-])c2)C2=C(CCCCS2(=O)=O)N1` (centres unmarked) [4 3-NO2C6 H4 drawing 7], on calcium channels, the 50% inhibitory concentration (IC50) came to 860 nM. The inhibition at 2 µM with trachealis muscle is 17%. The inhibition at 0.1 µM with Aorta Muscle turned out to be 12%.
For the compound `CC1=C(C(=O)OCCN(C)Cc2ccccc2)C(c2cccc(C(F)(F)F)c2Cl)C2=C(CCCCCCS2(=O)=O)N1` (centres unmarked) [6 2-Cl,3-CF3C6 H3, N-Benzyl-N-methylaminoethyl 19-(2-chloro-3-trifluoromethylphenyl)-2,3,4,5,6,7,8,11-octahydro-9-methyl-1,1-dioxothiacyclononeno[3,2-b]pyridine-10-carboxylate], the concentration for half-maximal inhibition (IC50) on calcium channels worked out at 470 nM. Also, in the test on trachealis muscle, the inhibition at 2 µM stood at 46%. At 0.1 µM the inhibition with Aorta Muscle was 30%.
Turning to `CC1=C(C(=O)OCCc2ccccn2)C(c2cccc([N+](=O)[O-])c2)C2=C(CCCCCS2(=O)=O)N1` (centres unmarked) [5 3-NO2C6 H4 drawing 10], the half-inhibitory concentration (IC50) on calcium channels worked out at 65 nM. In addition, the inhibition at 0.1 µM in the test on trachealis muscle was 53%; with Aorta Muscle it was 48%.
As for `CC1=C(C(=O)OCCN(C)Cc2ccccc2)C(c2ccccc2[N+](=O)[O-])C2=C(CCCCCS2(=O)=O)N1` (centres unmarked) [5 2-NO2C 6 H4 CH2 CH2 NCH3 CH2 C6 H5], the results for the inhibition at 0.1 µM in the test with trachealis muscle and in the test on Aorta Muscle were 69% and 73%, respectively.
